In patent publication US10851098B2, “Azole amides and amines as alpha v integrin inhibitors” (BRISTOL-MYERS SQUIBB COMPANY, priority 2016, dated 2020):

Molecular target: T1, human αVβ6 (Homo sapiens, UniProt P06756+P18564)
T1 construct: purchased R & D systems 3817-AV
Experiment: human αVβ6 HTRF binding assay
Description: All binding assays used the HTRF (homogeneous time resolved fluorescence) technology from Cisbio International, therefore all assays are described as HTRF binding assays. The assay results for the Examples are listed above together with the characterization data. The HTRF binding assays are established for the following integrins: human αVβ6, human αVβ1, human αVβ3, human αVβ5, and human αVβ8. All assays used the following assay buffer: 20 mM Tris, pH 7.4, 1 mM MgCl2, 1 mM MnCl2, 0.01% Tween 20, and 0.01% BSA. Alternatively, a SPA-based assay was used for evaluation of receptor binding.
[…]

T1 sequence (P06756 31-992 limits assumed): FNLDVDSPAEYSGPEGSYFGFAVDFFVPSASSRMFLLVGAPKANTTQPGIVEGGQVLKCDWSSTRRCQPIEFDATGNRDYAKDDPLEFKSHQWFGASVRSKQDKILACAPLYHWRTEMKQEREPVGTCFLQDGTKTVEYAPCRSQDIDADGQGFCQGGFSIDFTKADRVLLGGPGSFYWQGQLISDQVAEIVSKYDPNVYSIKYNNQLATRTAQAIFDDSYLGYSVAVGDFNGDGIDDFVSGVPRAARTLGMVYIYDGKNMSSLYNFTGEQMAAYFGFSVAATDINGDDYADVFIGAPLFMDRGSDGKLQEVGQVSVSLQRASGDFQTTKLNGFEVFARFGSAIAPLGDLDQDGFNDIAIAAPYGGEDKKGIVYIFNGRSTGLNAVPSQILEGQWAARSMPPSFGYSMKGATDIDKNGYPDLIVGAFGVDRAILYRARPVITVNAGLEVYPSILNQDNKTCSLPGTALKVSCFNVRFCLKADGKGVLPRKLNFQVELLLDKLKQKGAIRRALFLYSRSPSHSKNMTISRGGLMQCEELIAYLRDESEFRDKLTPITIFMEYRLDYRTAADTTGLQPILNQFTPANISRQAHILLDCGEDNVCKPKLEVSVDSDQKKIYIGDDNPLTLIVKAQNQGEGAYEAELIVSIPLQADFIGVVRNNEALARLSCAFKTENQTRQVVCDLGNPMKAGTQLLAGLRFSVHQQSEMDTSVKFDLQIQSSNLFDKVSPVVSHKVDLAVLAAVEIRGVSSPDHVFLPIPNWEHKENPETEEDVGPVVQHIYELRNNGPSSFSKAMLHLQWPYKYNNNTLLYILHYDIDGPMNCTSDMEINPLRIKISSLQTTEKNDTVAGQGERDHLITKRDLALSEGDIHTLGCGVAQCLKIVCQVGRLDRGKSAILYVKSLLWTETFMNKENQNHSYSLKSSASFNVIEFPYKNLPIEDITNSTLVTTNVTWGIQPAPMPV
T1 sequence (P18564 22-707 limits assumed): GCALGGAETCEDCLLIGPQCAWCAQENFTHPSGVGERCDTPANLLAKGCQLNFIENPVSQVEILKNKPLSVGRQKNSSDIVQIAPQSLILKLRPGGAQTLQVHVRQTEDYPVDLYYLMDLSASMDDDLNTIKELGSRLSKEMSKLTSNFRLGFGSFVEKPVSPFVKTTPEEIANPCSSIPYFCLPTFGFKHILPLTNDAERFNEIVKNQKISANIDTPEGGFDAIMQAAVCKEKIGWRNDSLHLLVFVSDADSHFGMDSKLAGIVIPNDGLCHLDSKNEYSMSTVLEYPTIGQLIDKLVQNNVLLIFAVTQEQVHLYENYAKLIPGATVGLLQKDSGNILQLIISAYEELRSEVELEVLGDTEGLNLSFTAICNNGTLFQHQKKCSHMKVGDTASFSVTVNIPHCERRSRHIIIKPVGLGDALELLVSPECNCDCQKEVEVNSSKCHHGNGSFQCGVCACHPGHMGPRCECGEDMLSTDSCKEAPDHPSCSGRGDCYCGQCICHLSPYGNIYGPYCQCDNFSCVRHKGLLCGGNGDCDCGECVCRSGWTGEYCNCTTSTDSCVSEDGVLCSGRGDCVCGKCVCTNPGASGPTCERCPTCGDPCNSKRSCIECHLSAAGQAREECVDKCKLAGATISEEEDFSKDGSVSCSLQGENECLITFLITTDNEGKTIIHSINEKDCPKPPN

Point of comparison: `COc1ccc([C@H](CC(=O)O)NC(=O)c2cnn(CCCc3ccc4c(n3)NCCC4)c2)cn1` [Example 87], IC50 339 nM. Against it:
- Cc1c(C(=O)NC(CC(=O)O)c2cc(Cl)cc(Cl)c2)cnn1CCc1ccc2c(n1)NCCC2 (stereo not shown) [Example 49] — 15-fold lower, 23 nM
- COc1ccc([C@H](CC(=O)O)NC(=O)c2cnn(CCc3ccc4c(n3)NCCC4)c2COC(C)(C)C)cc1F [Example 50] — 13-fold lower, 26 nM
- CC(C)(C)OCc1c(C(=O)NC(CC(=O)O)c2cccc(Oc3cc(Cl)cc(Cl)c3)c2)cnn1CCc1ccc2c(n1)NCCC2 (stereo not shown) [Example 51] — 12-fold lower, 28 nM
- Cc1ccc(C(CC(=O)O)NC(=O)c2cnn(CCc3ccc4c(n3)NCCC4)c2CO)cc1C (stereo not shown) [Example 52] — 12-fold lower, 29 nM
- N#Cc1cccc(C(CC(=O)O)NC(=O)c2cnn(CCc3ccc4c(n3)NCCC4)c2CO)c1 (stereo not shown) [Example 53] — 11-fold lower, 30 nM
- COc1ccc([C@H](CC(=O)O)NC(=O)c2cn(CCc3ccc4c(n3)NCCC4)nc2C)cc1F [Example 54] — 11-fold lower, 30 nM
- Cc1cccc(C(CC(=O)O)NC(=O)c2cnn(CCc3ccc4c(n3)NCCC4)c2CO)c1 (stereo not shown) [Example 55] — 11-fold lower, 32 nM
- O=C(O)CC(NC(=O)c1cnn(CCc2ccc3c(n2)NCCC3)c1)c1ccc2c(c1)OCO2 (stereo not shown) [Example 56] — 9.2-fold lower, 37 nM
- Cc1nn(CCc2ccc3c(n2)NCCC3)c(C)c1C(=O)NC(CC(=O)O)c1ccc(Cl)c(Cl)c1 (stereo not shown) [Example 57] — 8.5-fold lower, 40 nM
- O=C(O)CC(NC(=O)c1cnn(CCc2ccc3c(n2)NCCC3)c1CO)c1ccc(Cl)c(Cl)c1 (stereo not shown) [Example 58] — 8.5-fold lower, 40 nM
- CC(C)(C)OCc1c(C(=O)NC(CC(=O)O)c2cc(Cl)cc(Cl)c2)cnn1CCCc1ccc2c(n1)NCCC2 (stereo not shown) [Example 59] — 8.5-fold lower, 40 nM
- O=C(O)C[C@H](NC(=O)c1cnn(CCCc2ccc3c(n2)NCCC3)c1)c1cc(Cl)cc(Cl)c1 [Example 60] — 7.4-fold lower, 46 nM
- CC(C)(C)c1cc(Br)cc([C@H](CC(=O)O)NC(=O)c2cnn(CCCc3ccc4c(n3)NCCC4)c2)c1 [Example 61] — 6.9-fold lower, 49 nM
- O=C(O)CC(NC(=O)c1cnn(CCc2ccc3c(n2)NCCC3)c1CO)c1ccc(C(F)(F)F)cc1 (stereo not shown) [Example 62] — 6.9-fold lower, 49 nM
- CC(C)(C)c1cc(Br)cc([C@H](CC(=O)O)NC(=O)c2cn(CCc3ccc4c(n3)NCCC4)nc2C(F)(F)F)c1 [Example 63] — 6.1-fold lower, 56 nM
- O=C(O)CC(NC(=O)c1cnn(CCc2ccc3c(n2)NCCC3)c1CO)c1cccc(-n2cccc2)c1 (stereo not shown) [Example 64] — 5.3-fold lower, 64 nM
- O=C(O)CC(NC(=O)c1cnn(CCc2ccc3c(n2)NCCC3)c1CO)c1ccc2c(c1)OCO2 (stereo not shown) [Example 65] — 5.3-fold lower, 64 nM
- Cc1ccc(C(CC(=O)O)NC(=O)c2cnn(CCc3ccc4c(n3)NCCC4)c2CO)cc1 (stereo not shown) [Example 66] — 3.7-fold lower, 91 nM
- O=C(O)CC(NC(=O)c1cnn(CCc2ccc3c(n2)NCCC3)c1CO)c1ccc(Cl)cc1 (stereo not shown) [Example 67] — 3.6-fold lower, 95 nM
- O=C(O)CC(NC(=O)c1cnn(CCCc2ccc3c(n2)NCCC3)c1CO)c1cc(Cl)cc(Cl)c1 (stereo not shown) [Example 68] — 3.5-fold lower, 98 nM
- O=C(O)CC(NC(=O)c1cnn(CCc2ccc3c(n2)NCCC3)c1-c1ccccc1)c1cc(Cl)cc(Cl)c1 (stereo not shown) [Example 69] — 3.1-fold lower, 111 nM
- Cc1nn(CCc2ccc3c(n2)NCCC3)cc1C(=O)NC(CC(=O)O)c1cc(Cl)cc(Cl)c1 (stereo not shown) [Example 70] — 3-fold lower, 112 nM
- O=C(O)CC(NC(=O)c1cnn(CCc2ccc3c(n2)NCCC3)c1CO)c1ccc(F)cc1 (stereo not shown) [Example 71] — 2.8-fold lower, 120 nM
- O=C(O)CC(NC(=O)c1cnn(CCc2ccc3c(n2)NCCC3)c1CO)c1ccccc1 (stereo not shown) [Example 72] — 2.7-fold lower, 124 nM
- COc1ccc(C(CC(=O)O)NC(=O)c2cnn(CCc3ccc4c(n3)NCCC4)c2CO)cc1 (stereo not shown) [Example 73] — 2.7-fold lower, 124 nM
- COc1ccc([C@H](CC(=O)O)NC(=O)c2cnn(CCCc3ccc4c(n3)NCCC4)c2)cc1F [Example 74] — 2.7-fold lower, 125 nM
- O=C(O)CC(NC(=O)c1cnn(CCc2ccc3c(n2)NCCC3)c1CO)c1cccc(F)c1 (stereo not shown) [Example 75] — 2.6-fold lower, 130 nM
- COc1ccc(C(CC(=O)O)NC(=O)c2cnn(CCc3ccc4c(n3)NCCC4)c2CO)cc1OC (stereo not shown) [Example 76] — 2.6-fold lower, 131 nM
- Cc1nn(CCc2ccc3c(n2)NCCC3)c(C)c1C(=O)NC(CC(=O)O)c1ccc(C(F)(F)F)cc1 (stereo not shown) [Example 77] — 2.5-fold lower, 134 nM
- O=C(O)CC(NC(=O)c1cn(CCc2ccc3c(n2)NCCC3)nc1-c1ccccc1)c1ccc(Cl)c(Cl)c1 (stereo not shown) [Example 78] — 2.5-fold lower, 137 nM
- O=C(O)CC(NC(=O)c1cnn(CCc2ccc3c(n2)NCCC3)c1CO)c1cc(F)cc(F)c1 (stereo not shown) [Example 80] — 1.9-fold lower, 178 nM
- Cc1cc(C)c(S(=O)(=O)N[C@H](CNC(=O)c2cnn(CCc3cc4c(nc3C)NCCC4)c2)C(=O)O)c(C)c1 [Example 81] — 1.6-fold lower, 215 nM
- O=C(O)CC(NC(=O)c1cn(CCc2ccc3c(n2)NCCC3)nc1-c1ccccc1)c1cc(Cl)cc(Cl)c1 (stereo not shown) [Example 82] — within 1.5-fold, 244 nM
- Cc1nn(CCc2ccc3c(n2)NCCC3)c(C)c1C(=O)NC(CC(=O)O)c1cc(Cl)cc(Cl)c1 (stereo not shown) [Example 83] — within 1.5-fold, 278 nM
- CC(C)(C)OCc1nn(CCc2ccc3c(n2)NCCC3)cc1C(=O)NC(CC(=O)O)c1ccc(Cl)c(Cl)c1 (stereo not shown) [Example 84] — within 1.5-fold, 284 nM
- O=C(NCC(C(=O)O)c1ccccc1)c1cnn(CCc2ccc3c(n2)NCCC3)c1 (stereo not shown) [Example 85] — within 1.5-fold, 321 nM
- COc1ccc([C@H](CC(=O)O)NC(=O)c2cnn(CCCNC3=NCCN3)c2)cn1 [Example 88] — within 1.5-fold, 378 nM
- CC(C)CC(CC(=O)O)NC(=O)c1cnn(CCc2ccc3c(n2)NCCC3)c1 (stereo not shown) [Example 89] — within 1.5-fold, 399 nM
- O=C(O)CC(CCc1ccccc1)NC(=O)c1cnn(CCc2ccc3c(n2)NCCC3)c1 (stereo not shown) [Example 90] — within 1.5-fold, 401 nM
- COc1ccc([C@H](CC(=O)O)NC(=O)c2cnn(CCc3ccc4c(n3)NCCC4)c2-c2ccccc2)cc1F [Example 91] — within 1.5-fold, 410 nM
- Cc1ccccc1[C@H](CC(=O)O)NC(=O)c1cnn(CCc2ccc3c(n2)NCCC3)c1CO [Example 92] — within 1.5-fold, 416 nM
- CN(C(=O)c1cnn(CCc2ccc3c(n2)NCCC3)c1)[C@H](CC(=O)O)c1cc(Cl)cc(Cl)c1 [Example 93] — within 1.5-fold, 446 nM
- COc1ccc([C@H](CC(=O)O)NC(=O)c2cnn(CCCNc3ccccn3)c2)cn1 [Example 94] — 1.7-fold higher, 592 nM
- CC(C)(C)OCc1nn(CCc2ccc3c(n2)NCCC3)cc1C(=O)NC(CC(=O)O)c1ccc(C(F)(F)F)cc1 (stereo not shown) [Example 95] — 3.1-fold higher, 1050 nM
- COC(=O)C[C@H](NC(=O)c1cnn(CCc2ccc3c(n2)NCCC3)c1)c1cc(Br)cc(C(C)(C)C)c1 [Example 96] — 3.2-fold higher, 1100 nM
- O=C(O)C[C@H](NC(=O)c1cnn(Cc2ccc3c(n2)NCCC3)c1)c1cc(Cl)cc(Cl)c1 [Example 97] — 3.5-fold higher, 1170 nM
- CC(C)(C)c1cc(Br)cc([C@H](CC(=O)O)NC(=O)c2cnn(Cc3ccc4c(n3)NCCC4)c2)c1 [Example 98] — 4.2-fold higher, 1410 nM
- O=C(O)CC(Cc1ccccc1)NC(=O)c1cnn(CCc2ccc3c(n2)NCCC3)c1 (stereo not shown) [Example 99] — 4.2-fold higher, 1420 nM
- Cc1nc2c(cc1Cn1cc(C(=O)NC(CC(=O)O)c3cc(Cl)cc(Cl)c3)c(C)n1)CCCN2 (stereo not shown) [Example 100] — 4.3-fold higher, 1460 nM
- CCOC(=O)C[C@H](NC(=O)c1cnn(CCc2ccc3c(n2)NCCC3)c1)c1cc(Cl)cc(Cl)c1 [Example 101] — 4.3-fold higher, 1460 nM
- COc1ccc([C@H](CC(=O)O)NC(=O)c2cnn(Cc3ccc4c(n3)NCCC4)c2)cn1 [Example 102] — 5.8-fold higher, 1980 nM
- O=C(O)CC(NC(=O)c1cnn(CCc2ccc3c(n2)NCCC3)c1CO)c1ccccc1Cl (stereo not shown) [Example 103] — 7.7-fold higher, 2600 nM
- CCN(C(=O)c1cnn(CCc2ccc3c(n2)NCCC3)c1)C(CC(C)=O)c1cc(Cl)cc(Cl)c1 (stereo not shown) [Example 104] — 11-fold higher, 3810 nM
- Cc1nc2c(cc1Cn1cc(C(=O)NC(CC(=O)O)c3cc(Cl)cc(Cl)c3)c(CO)n1)CCCN2 (stereo not shown) [Example 105] — 12-fold higher, 3930 nM
- CCOC(=O)C[C@H](NC(=O)c1cnn(CCc2ccc3c(n2)NCCC3)c1)c1cc(Br)cc(C(C)(C)C)c1 [Example 106] — 13-fold higher, 4310 nM
- Cc1nc2c(cc1CCn1ncc(C(=O)NC(CC(=O)O)c3cc(Cl)cc(Cl)c3)c1CO)CCCN2 (stereo not shown) [Example 107] — 15-fold higher, 5000 nM
- Cc1nc2c(cc1CCn1ncc(C(=O)NC(CC(=O)O)c3cc(Cl)cc(Cl)c3)c1COC(C)(C)C)CCCN2 (stereo not shown) [Example 108] — 15-fold higher, 5000 nM
- O=C(O)CC1(NC(=O)c2cnn(CCc3ccc4c(n3)NCCC4)c2)Cc2ccccc2C1 [Example 109] — 19-fold higher, 6440 nM
- Cc1cc(C)c(S(=O)(=O)N[C@@H](CNC(=O)c2ccnn2CCc2ccc3c(n2)NCCC3)C(=O)O)c(C)c1 [Example 115] — 10-fold lower, 34 nM
- O=C(O)C[C@H](NC(=O)c1cn(CCc2ccc3c(n2)NCCC3)cn1)c1cc(Cl)cc(Cl)c1 [Example 116] — 3.3-fold lower, 102 nM
- CCOC(=O)[C@H](CNC(=O)c1cn(CCc2ccc3c(n2)NCCC3)cn1)NS(=O)(=O)c1c(C)cc(C)cc1C [Example 117] — 2.6-fold lower, 130 nM
- Cc1cc(C)c(S(=O)(=O)N[C@@H](CNC(=O)c2cnn(Cc3cc4c(nc3C)NCCC4)n2)C(=O)O)c(C)c1 [Example 118] — 1.5-fold lower, 223 nM
- O=C(O)C[C@H](NC(=O)c1ncn(CCc2ccc3c(n2)NCCC3)n1)c1cc(Cl)cc(Cl)c1 [Example 120] — 3.5-fold lower, 98 nM
- Cc1cc(C)c(S(=O)(=O)N[C@@H](CNC(=O)c2ccn(Cc3cc4c(nc3C)NCCC4)c2)C(=O)O)c(C)c1 [Example 122] — 7.9-fold lower, 43 nM
- CCCCS(=O)(=O)N[C@@H](CNC(=O)c1cnn(CCc2ccc3c(n2)NCCC3)c1)C(=O)O [Example 124] — 130-fold lower, 2.6 nM
- O=C(NC[C@H](NS(=O)(=O)Cc1ccccc1)C(=O)O)c1cnn(CCc2ccc3c(n2)NCCC3)c1 [Example 125] — 24-fold lower, 14 nM
